The results in this text go back to patent publication US10738031B2, “N-[(heteroaryloxy)propanyl]heteroaryl carboxamides as antagonists of orexin subtype 1 receptor activity” (Boehringer Ingelheim International GmbH, priority 2016, dated 2020).

A short description of series [1]: Assay C: Human MST t1/2 (stability in human liver microsomes). Type of series: in vitro ADME. The settings on record: human liver microsomes.
In series [2] the target is T1, human orexin 2 receptor (Homo sapiens, UniProt O43614).
T1 construct: stably expressing the full-length human orexin 2 receptor; expressed in transfected cells; host or cells: CHO-K1 (CHO-K1/hOX2), co-expressing aequorin
T1 sequence (O43614 1-444): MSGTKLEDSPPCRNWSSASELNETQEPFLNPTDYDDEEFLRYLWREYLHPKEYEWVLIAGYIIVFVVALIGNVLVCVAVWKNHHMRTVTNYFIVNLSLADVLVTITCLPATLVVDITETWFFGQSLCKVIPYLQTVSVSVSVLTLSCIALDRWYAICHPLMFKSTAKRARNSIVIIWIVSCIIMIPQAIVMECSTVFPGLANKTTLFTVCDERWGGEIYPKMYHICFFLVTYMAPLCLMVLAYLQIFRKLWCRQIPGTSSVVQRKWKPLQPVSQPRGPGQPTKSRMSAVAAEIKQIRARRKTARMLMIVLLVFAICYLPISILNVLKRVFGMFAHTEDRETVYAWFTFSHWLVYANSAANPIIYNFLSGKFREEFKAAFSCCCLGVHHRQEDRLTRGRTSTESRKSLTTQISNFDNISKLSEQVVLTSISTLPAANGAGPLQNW
Nature of the series: Assay B: OX2R IP1 (in vitro OX2R potency). The settings on record: Table 3; 0.5 nM Orexin A concentration. Type of series: cell-based. The source says:
Activation of the orexin receptors expressed in cell lines results in an increase in intracellular IP3 concentration. IP1, a downstream metabolite of IP3, accumulates in cells following receptor activation and is stable in the presence of LiCl. Using Homogeneous Time-Resolved Fluorescence technology with Lumi4-Tb cryptate (commercially available from Cisbio Bioassay.) and a suitable fluorescence plate reader. This functional response is detectable and quantifiable as described in Trinquet et al. Anal. […] Curr. Chem. Genomics 2009, 3, 22-32. This technique is used to characterize pharmacological modification of the orexin receptors. B. In Vitro Testing of OX2R Potency: OX2R IP1 IP1 measurements are performed in CHO-K1 cells stably expressing the full-length human orexin 2 receptor and the aequorin photoprotein. Cells are cultivated in Ham's nutrient mixture F12 medium with 10% fetal calf serum, in a 37° C., 95% humidity and 5% CO2 incubator. The CHO-K1/hOX2 cell mass is expanded to larger cell numbers. The cells are obtained as frozen cells in cryo-vials and stored until use at -150° C. The viability of the cells after thawing is >90%. In preparation for the assay, 24 hours before the assay, the cells are thawed at 37° C. and immediately diluted with cell culture medium. After centrifugation, the cell pellet is resuspended in medium and then distributed into the assay plates with a density of 5000 cells/25 μL per well. The plates are incubated for one hour at room temperature to reduce edge effects before they are incubated for 24 hours at 37° C./5% CO2. […] On the day of the assay, cells in the plate are washed twice with 60 μL assay buffer (20 μL buffer remained in the wells after washing), followed by adding 5 μL per well of compounds diluted in assay buffer. […] The assay plate is incubated for 60 minutes at 37° C. Then 5 μL per well of Anti-IP1-Cryptate Tb solution and 5 μL per well of IP1-d2 dilution are added to all well of the plate and the plate is incubated for a further 60 minutes light protected at room temperature. […] The ratio between the emission at 665 nm and 615 is calculated by the reader. […] AssayExplorer (Accelrys). In order to establish an agonist concentration independent parameter, Kb values are calculated using the following equation: […] Sci. 1993, 14(4), 110-112).

Series [3] deals with T2, human Orexin 1 receptor (Homo sapiens, UniProt O43613).
T2 construct: stably expressing the full-length human Orexin 1 receptor; expressed in transfected cells; host or cells: CHO-K1 (CHO-K1/hOX1), co-expressing aequorin
T2 sequence (O43613 1-425): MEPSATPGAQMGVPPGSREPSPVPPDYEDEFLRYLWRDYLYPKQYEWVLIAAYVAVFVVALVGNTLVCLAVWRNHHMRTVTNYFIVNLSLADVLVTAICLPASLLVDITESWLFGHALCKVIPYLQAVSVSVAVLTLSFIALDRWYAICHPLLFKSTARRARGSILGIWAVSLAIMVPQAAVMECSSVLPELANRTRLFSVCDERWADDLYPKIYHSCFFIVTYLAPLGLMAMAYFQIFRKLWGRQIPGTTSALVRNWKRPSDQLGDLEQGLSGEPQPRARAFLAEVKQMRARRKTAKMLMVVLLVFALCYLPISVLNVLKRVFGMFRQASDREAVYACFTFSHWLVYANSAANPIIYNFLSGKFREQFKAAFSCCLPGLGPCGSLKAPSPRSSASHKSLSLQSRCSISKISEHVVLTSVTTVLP
In words: Assay A: OX1R IP1 (in vitro OX1R potency). The note with it: for Kb: Table 3. Type of series: cell-based.

`CC[C@@H](CNc1ccc(C(F)(F)F)cn1)N(CC)C(=O)c1nc(C)ccc1-n1nccn1` [Ex 71 in WO2016/ 034882, reference compound] showed a half-life in series [1] of 4.5 min. Also, in series [2], the Kb stood at 27 nM.
In series [1], `CCN(C(=O)c1cc(C(F)(F)F)cnc1-n1cccn1)[C@@H](C)COc1ccc(C(F)(F)F)cn1` [Example 3] registered a half-life of 83 min. Further, the “OX2R Kb/OX1R Kb” value in series [3] came to 177. Besides, the Kb is 1.2 nM in series [3] (Orexin A concentration 0.5 nM), 1.2 nM in series [3] (Orexin A concentration 50 nM) and 212 nM in series [2].
For `CCN(C(=O)c1nc(C)ccc1-n1nccn1)[C@@H](C)COc1ccc(C(F)(F)F)cn1` [Example 5], in series [1], the half-life was 25 min. The “OX2R Kb/OX1R Kb” value in series [3] is 393. In addition, the Kb came out at 0.15 nM in series [3] (Orexin A concentration 50 nM) and 59 nM in series [2].
As to `CCN(C(=O)c1cc(F)cnc1-n1nccn1)[C@@H](C)COc1ccc(C(F)(F)F)cn1` [Example 6], the half-life in series [1] is above 130 min. Also, the Kb in series [3] (Orexin A concentration 0.5 nM) was determined as 1.2 nM; in series [3] (Orexin A concentration 50 nM) it was 1.5 nM; in series [2] it was 844 nM.
For the compound `CCN(C(=O)c1nc(C)ccc1-n1nccn1)[C@@H](C)COc1ccc(Cl)cn1` [Example 8], in series [1], the half-life is 25 min. In addition, the “OX2R Kb/OX1R Kb” value in series [3] stood at 158. The Kb in series [3] (Orexin A concentration 50 nM) is 0.45 nM; in series [2], 71 nM.
In turn, `CCN(C(=O)c1cnc(C)nc1-c1ccccc1)[C@@H](C)COc1cnc(C(F)(F)F)cn1` [Example 9] yielded a half-life in series [1] above 130 min. In series [3], the “OX2R Kb/OX1R Kb” value amounted to 522. Moreover, the Kb in series [3] (Orexin A concentration 0.5 nM) was 1.8 nM; in series [2] it was 939 nM.
For `CCN(C(=O)c1nc(C)ccc1-n1nccn1)[C@@H](C)COc1cnc(C(F)(F)F)cn1` [Example 10], in that order: above 130 min, 300, 2.5 nM and 749 nM.
As for `CCN(C(=O)c1cnc(C)nc1-c1ccccc1)[C@@H](C)COc1ncc(C(F)(F)F)cn1` [Example 11], in series [1], the half-life was 88 min. Also, the “OX2R Kb/OX1R Kb” value in series [3] is recorded as 860. Further, the Kb in series [3] (Orexin A concentration 0.5 nM) stood at 1.5 nM; in series [2], 1290 nM.
For `CCN(C(=O)c1nc(C)ccc1-n1nccn1)[C@@H](C)COc1ncc(C(F)(F)F)cc1F` [Example 12], in that order: 13 min, 268, 0.77 nM and 206 nM.
The like results for `CCN(C(=O)c1ncccc1-c1ccccc1)[C@@H](C)COc1ncc(C(F)(F)F)cn1` [Example 15] were, in that order, 96 min, 157, 4.5 nM and 705 nM.
The compound `CCN(C(=O)c1ccc(C)nc1-n1nccn1)[C@@H](C)COc1ccc(C(F)(F)F)cn1` [Example 17] displayed a half-life in series [1] of 59 min. Further, the “OX2R Kb/OX1R Kb” value in series [3] came to 1618. Also, the Kb in series [3] (Orexin A concentration 50 nM) amounted to 0.22 nM; in series [2], 356 nM.
In series [1], `CCN(C(=O)c1ncc(C)cc1-c1ccn(C)n1)[C@@H](C)COc1ccc(C(F)(F)F)cn1` [Example 20] came in with a half-life of 24 min. In series [3], the “OX2R Kb/OX1R Kb” value stood at 1660. For the same compound, the values for the Kb in series [3] (Orexin A concentration 50 nM) and in series [2] were 0.25 nM and 415 nM, respectively.
`CCN(C(=O)c1cc(F)cnc1-n1nccn1)[C@@H](C)COc1ncc(C(F)(F)F)cc1F` [Example 21] had a half-life in series [1] above 130 min. Moreover, the “OX2R Kb/OX1R Kb” value in series [3] amounted to 817. The Kb in series [3] (Orexin A concentration 0.5 nM) is 3.3 nM; in series [2], 2700 nM.
The like results for `CCN(C(=O)c1cc(F)cnc1-n1nccn1)[C@@H](C)COc1ccc(Cl)cn1` [Example 22] were, in that order, 82 min, 215, 4.7 nM and 1010 nM.
For `CCN(C(=O)c1nc(C)ccc1-n1nccn1)[C@@H](C)COc1ncc(C(F)(F)F)cn1` [Example 23], in that order: 110 min, 439, 6.6 nM and 2900 nM.
The like results for `CCN(C(=O)c1c(F)cncc1-n1cccn1)[C@@H](C)COc1ccc(C(F)(F)F)cn1` [Example 24] were, in that order, 29 min, 167, 6.4 nM and 1070 nM.
`CCN(C(=O)c1ncccc1-n1nccn1)[C@@H](C)COc1ccc(C(F)(F)F)cn1` [Example 26] returned a half-life in series [1] above 130 min. In addition, the “OX2R Kb/OX1R Kb” value in series [3] is 281. For the same compound, the Kb came out at 0.95 nM in series [3] (Orexin A concentration 0.5 nM) and 267 nM in series [2].
In turn, `CCN(C(=O)c1cc(C)cnc1-c1ccn(C)n1)[C@@H](C)COc1ccc(C(F)(F)F)cn1` [Example 27] showed a half-life in series [1] of 31 min. For the same compound, the Kb in series [3] (Orexin A concentration 0.5 nM) turned out to be 0.87 nM; in series [3] (Orexin A concentration 50 nM) it was 0.69 nM; in series [2] it was 134 nM.
Take `CCN(C(=O)c1ccc(C(F)(F)F)nc1-c1ccn(C)n1)[C@@H](C)COc1ccc(C(F)(F)F)cn1` [Example 28]: the half-life in series [1] is 11 min. Also, the “OX2R Kb/OX1R Kb” value in series [3] turned out to be 353. Moreover, the Kb came to 2 nM in series [3] (Orexin A concentration 0.5 nM) and 705 nM in series [2].
The like results for `CCN(C(=O)c1ccncc1-c1ccn(C)n1)[C@@H](C)COc1ccc(C(F)(F)F)cn1` [Example 29] were, in that order, 11 min, 184, 8.7 nM and 1600 nM.
The like results for `CCN(C(=O)c1ccc(C)nc1-n1nccn1)[C@@H](C)COc1ncc(C(F)(F)F)cn1` [Example 30] were, in that order, above 130 min, 641, 5.6 nM and 3590 nM.
On to `CCN(C(=O)c1ccc(OC)nc1-c1ccn(C)n1)[C@@H](C)COc1ccc(C(F)(F)F)cn1` [Example 32], for which, in series [1], the half-life was determined as 12 min. Also, in series [3], the “OX2R Kb/OX1R Kb” value is recorded as 707. Also, the Kb in series [3] (Orexin A concentration 50 nM) was determined as 0.15 nM; in series [2], 106 nM.
With `CCN(C(=O)c1ccc(C)nc1-n1nccn1)[C@@H](C)COc1cnc(C(F)(F)F)cn1` [Example 33], the half-life in series [1] was above 130 min. Further, the “OX2R Kb/OX1R Kb” value in series [3] came to 421. For the same compound, the Kb in series [3] (Orexin A concentration 0.5 nM) is 7.8 nM; in series [2], 3280 nM.
The like results for `CCN(C(=O)c1ncccc1-c1ccn(C)n1)[C@@H](C)COc1ccc(C(F)(F)F)cn1` [Example 34] were, in that order, 81 min, 190, 1.5 nM and 285 nM.
The like results for `CCN(C(=O)c1cc(F)cnc1-c1ncccn1)[C@@H](C)COc1ncc(C(F)(F)F)cc1F` [Example 35] were, in that order, above 130 min, 706, 4.6 nM and 3250 nM.
For `CCN(C(=O)c1cnccc1-n1nccn1)[C@@H](C)COc1ccc(C(F)(F)F)cn1` [Example 36], in that order: 15 min, 240, 1 nM and 240 nM.
